PMC5086919, “Antileukemic Scalarane Sesterterpenoids and Meroditerpenoid from Carteriospongia (Phyllospongia) sp., Induce Apoptosis via Dual Inhibitory Effects on Topoisomerase II and Hsp90” (Scientific Reports, 2016)
Values after ≈ are worked out from the molar mass of the structure shown. Where two headings read alike, the source gives them in different places.

Columns and labels:
human topoisomerase II = target: T1, human topoisomerase II (Homo sapiens, UniProt P11388); experiment: Cell-free topoisomerase II DNA relaxation/cleavage assay with supercoiled pHOT1 plasmid DNA; type: biochemical; settings: for inhibition at 0.08 µg/mL: 0.08 μg/mL; for inhibition at 0.08 µg/mL / inhibition at 0.312 µg/mL / inhibition at 1.25 µg/mL / inhibition at 5 µg/mL / inhibition at 20 µg/mL: compared with control supercoiled DNA; for inhibition at 0.312 µg/mL: 0.312 μg/mL; for inhibition at 1.25 µg/mL: 1.25 μg/mL; for inhibition at 5 µg/mL: 5 μg/mL; for inhibition at 20 µg/mL: 20 μg/mL
T1 construct: purchased Topogen
T1 sequence (P11388 whole entry): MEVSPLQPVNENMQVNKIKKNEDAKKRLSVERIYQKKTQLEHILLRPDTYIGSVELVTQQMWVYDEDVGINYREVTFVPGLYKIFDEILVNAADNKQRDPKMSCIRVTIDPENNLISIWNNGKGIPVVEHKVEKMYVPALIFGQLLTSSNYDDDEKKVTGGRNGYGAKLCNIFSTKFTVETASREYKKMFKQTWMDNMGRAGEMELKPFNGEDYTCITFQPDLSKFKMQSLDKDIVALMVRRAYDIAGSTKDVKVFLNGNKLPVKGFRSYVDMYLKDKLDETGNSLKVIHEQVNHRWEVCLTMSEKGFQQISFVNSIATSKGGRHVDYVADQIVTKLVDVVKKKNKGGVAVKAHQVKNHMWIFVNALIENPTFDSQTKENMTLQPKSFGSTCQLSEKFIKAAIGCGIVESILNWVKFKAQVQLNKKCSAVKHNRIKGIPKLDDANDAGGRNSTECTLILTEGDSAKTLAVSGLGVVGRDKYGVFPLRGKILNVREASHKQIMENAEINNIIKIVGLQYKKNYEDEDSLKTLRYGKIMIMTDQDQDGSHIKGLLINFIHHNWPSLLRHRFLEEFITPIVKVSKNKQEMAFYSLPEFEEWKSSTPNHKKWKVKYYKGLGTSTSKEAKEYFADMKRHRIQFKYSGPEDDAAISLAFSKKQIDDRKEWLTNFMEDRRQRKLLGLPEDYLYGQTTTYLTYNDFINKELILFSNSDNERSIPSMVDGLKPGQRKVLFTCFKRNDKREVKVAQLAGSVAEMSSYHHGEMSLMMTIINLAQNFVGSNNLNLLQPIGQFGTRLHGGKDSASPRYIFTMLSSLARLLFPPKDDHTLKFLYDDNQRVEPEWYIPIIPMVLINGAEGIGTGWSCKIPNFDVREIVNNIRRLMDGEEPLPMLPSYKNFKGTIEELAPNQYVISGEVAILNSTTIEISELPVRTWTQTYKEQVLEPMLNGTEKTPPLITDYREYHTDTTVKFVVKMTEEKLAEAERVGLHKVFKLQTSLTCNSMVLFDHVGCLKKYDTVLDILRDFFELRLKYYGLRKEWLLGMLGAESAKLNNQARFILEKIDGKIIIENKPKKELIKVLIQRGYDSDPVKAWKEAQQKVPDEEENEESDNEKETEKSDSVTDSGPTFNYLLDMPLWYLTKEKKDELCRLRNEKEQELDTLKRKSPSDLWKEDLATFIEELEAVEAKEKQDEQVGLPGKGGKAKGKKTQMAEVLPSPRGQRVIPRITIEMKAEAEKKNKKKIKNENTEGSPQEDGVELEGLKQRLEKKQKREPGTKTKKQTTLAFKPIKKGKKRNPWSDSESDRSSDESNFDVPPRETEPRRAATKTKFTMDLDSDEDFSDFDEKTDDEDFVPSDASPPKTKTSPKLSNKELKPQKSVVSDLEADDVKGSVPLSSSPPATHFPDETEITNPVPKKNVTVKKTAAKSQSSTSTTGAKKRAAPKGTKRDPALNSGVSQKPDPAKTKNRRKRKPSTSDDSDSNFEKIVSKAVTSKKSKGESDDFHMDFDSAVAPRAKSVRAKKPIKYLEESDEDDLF
From the text: (§1) The ability of Topo II to generate DNA damage in the presence of Topo II-targeting agents led to the hypothesis that an important determinant of drug sensitivity was related to the overall level of Topo II[17]. […] Such findings encouraged us to evaluate the effect of the isolates on Topo II activity. In order to confirm whether the DNA damage-induced by the isolated sesterterpenoids involved the inhibition of Topo II activity, a cell-free DNA cleavage assay using an enzyme-mediated negatively supercoiled pHOT1 plasmid DNA was applied. […] These marine terpenoids suppressed Topo II activity, resulting in the inhibition of supercoiled DNA relaxation in a dose-dependent manner (Fig. 5A). […] To determine whether the apoptotic mechanism of these compounds affects γH2AX (as a biomarker of DNA damage) induction, Western blot analysis was employed to examine the activation of γH2AX.
The assay was performed as described previously. […] Reactions were terminated by adding 2 μL of 10% SDS to facilitate trapping the enzyme in a cleavage complex, followed by the addition of 2.5 μL of proteinase K (50 μg/mL) to digest the bound protein (incubated at 37 °C for 15 min) and finally by adding 0.1 volume of the sample loading dye. The DNA products were analyzed via electrophoresis through vertical 2% agarose gels at 2 voltage/cm in 0.5 × TAE buffer. Gels were stained with ethidium bromide and photographed using an Eagle Eye II system (Stratagene, La Jolla, CA, USA). The quantitative analysis of the DNA Topo II activity was performed as described previously.

γH2AX in Molt 4 cells = experiment: Western blot of γH2AX (DNA damage biomarker); type: cell-based, human; settings: 0, 0.0625, 0.125 and 0.25 μg/mL, 24 h
From the text: as §1
Cell lysates were prepared by treating the cells for 30 min in RIPA lysis buffer, 1% Nonidet P-40, 0.5% sodium deoxycholate, 0.1% sodium dodecyl sulphate (SDS), 1 mM sodium orthovanadate, 100 μg/mL phenylmethylsulfonyl fluoride and 30 μg/mL aprotinin) (all chemicals were from Sigma)[38]. The lysates were centrifuged at 20,000 × g for 30 min, and the protein concentration in the supernatant was determined using a BCA protein assay kit (Pierce). Equal amounts of proteins were respectively separated by 7.5%, 10% or 12% of SDS-polyacrylamide gel electrophoresis and then were electrotransferred to a PVDF membrane. The membrane was blocked with a solution containing 5% non-fat dry milk TBST buffer (20 mM Tris-HCl, pH 7.4, 150 mM NaCl and 0.1% Tween 20) for 1 h and washed with TBST buffer. The protein expressions were monitored by immunoblotting using specific antibodies. These proteins were detected by an enhanced chemiluminescence kit (Pierce).

Molt 4 cells [1] = experiment: MTT antiproliferative assay, leukemia Molt 4 cells; type: cell-based; settings: Homo sapiens
HL 60 cells = experiment: MTT antiproliferative assay, leukemia HL 60 cells; settings: Homo sapiens, HL-60, 72 h, read-out: IC50, cytotoxicity, Leukemia HL 60
From the text: (§2) Several cancer cell lines including leukemia K562, Molt 4, and HL 60 cells, prostate cancer LNCaP cells, colon cancer DLD-1 cells and breast cancer T-47D cells were used to evaluate the antiproliferative activity.
(§3) The cell lines were obtained from the American Type Culture Collection (ATCC, Manassas, VA, USA). […] Dimethyl sulfoxide (DMSO), 3-(4,5-dimethylthiazol-2-yl)-2,5-diphenyl-tetrazolium bromide (MTT) and all other chemicals were purchased from Sigma-Aldrich (St. Louis, MO, USA).

Molt 4 cells [2] = experiment: Annexin V/PI apoptosis assay; type: cell-based, human; settings: 0, 0.0625, 0.125 and 0.25 μg/mL, 24 h, annexin-V/PI
Method: The externalization of phosphatidylserine (PS) and membrane integrity were quantified using an annexin V- FITC staining kit[72]. In brief, 10^6 cells were grown in 35 mm diameter plates and were labeled with annexin V-FITC (10 μg/mL) and PI (20 μg/mL) prior to harvesting. After labeling, all plates were washed with a binding buffer and harvested. Cells were resuspended in the binding buffer at a concentration of 2 × 10^5 cells/mL before analysis by flow cytometer FACS-Calibur (Becton-Dickinson, San Jose, CA, USA) and CellQuest software. Approximately 10,000 cells were counted for each determination.

K562 cells = experiment: MTT antiproliferative assay, leukemia K562 cells; settings: Homo sapiens, K562, 72 h, read-out: IC50, cytotoxicity, Leukemia K562
From the text: as §2, §3

Cal-27 cells = experiment: MTT antiproliferative assay, oral Cal-27 cells; settings: Homo sapiens, CAL-27, 72 h, read-out: IC50, cytotoxicity, Oral Cal-27
From the text: as §2, §3

Molt 4 cells [3] = experiment: MMP disruption, JC-1 staining flow cytometry; type: cell-based, human; settings: 0, 0.0625, 0.125 and 0.25 μg/mL, 24 h
Method: These assays were performed as described previously. […] In brief, the treated cells were labeled with a specific fluorescent dye for 30 min. After labeling, cells were washed with PBS and resuspended in PBS at a concentration of 1 × 10^6 cells/mL before analysis via flow cytometry.

T-47D cells = experiment: MTT antiproliferative assay, breast cancer T-47D cells; settings: Homo sapiens, T47D, 72 h, read-out: IC50, cytotoxicity, Breast T-47D
From the text: as §2, §3

LNCaP cells = experiment: MTT antiproliferative assay, prostate cancer LNCaP cells; settings: Homo sapiens, 72 h
From the text: as §2, §3

Sup-T1 cells = experiment: MTT antiproliferative assay, lymphoma Sup-T1 cells; settings: Homo sapiens, SUP-T1, 72 h, read-out: IC50, cytotoxicity, Lymphoma Sup-T1
DLD-1 cells = experiment: MTT antiproliferative assay, colon cancer DLD-1 cells; settings: Homo sapiens, DLD-1, 72 h, read-out: IC50, cytotoxicity, Colon DLD-1
From the text: as §2, §3

Ca9-22 cells = experiment: MTT antiproliferative assay, oral Ca9-22 cells; settings: Homo sapiens, Ca9-22, 72 h, read-out: IC50, cytotoxicity, Oral Ca9-22
From the text: as §2, §3

U937 cells = experiment: MTT antiproliferative assay, lymphoma U937 cells; settings: Homo sapiens, U-937, 72 h, read-out: IC50, cytotoxicity, Lymphoma U937
[4] = system: human Molt 4 tumor xenograft; experiment: Human leukemia Molt 4 tumor xenograft animal model; type: in vivo, immunodeficient athymic mice
From the text: Compounds 1 and 2 induced apoptosis in several cancer cell lines; however, the amounts isolated were insufficient for further examination of their in vivo antitumor effect. On the other hand, the amount separated from 3 was sufficient to study the in vivo anti-tumor activity by evaluating its effect on tumor growth of human leukemia Molt 4 in xenograft animal model. Molt 4 (1 × 10^6) cells were inoculated subcutaneously at the right flank of female immunodeficient athymic mice. […] The average tumor size on day 33 in the control group was 404.63 mm^3, whereas the average tumor size in compound 3-treated group was 212.10 mm^3 (Fig. 6A).
Establishment of nude mice with xenografts was performed as described previously. Six-week-old […] immunodeficient athymic mice were purchased from the National Laboratory Animal and Research Center (Taipei, Taiwan). All of the animals were maintained under standard laboratory conditions (temperature 24–26 °C, 12–12 h dark-light circle) and fed with laboratory diet and water. This study was approved by the Animal Care and Treatment Committee of Kaohsiung Medical University (IACUC Permit Number 101136). All experiments were conducted in strict accordance with the recommendations in the Guide for the Care and Use of Laboratory Animals of the National Institutes of Health, and all efforts were made to minimize animal stress/distress. Molt 4 cells (1 × 10^6) resuspended in 0.2 mL PBS were injected s.c. into the right flank of each mouse, and tumor growth was monitored every day. Fourteen days after tumor cell injection, mice with confirmed tumor growth were randomly divided into two groups. Compound 3 (1.14 μg/g) was intraperitoneally administered to the treatment group, and the control group received solvent only. Compound 3 was administrated every other day for 33 days. Animals were sacrificed by carbon dioxide. Tumor size was measured three times a week using calipers and tumor volumes were calculated according to the standard formula: width^2 × length/2.

[5] = 72 h, read-out: IC50, cytotoxicity, Leukemia Molt 4
[6] = read-out: IC50, cytotoxicity, Prostate LNCaP (class symbol)

CC[C@@H](O)CC(=O)O[C@@H]1C[C@@H]2[C@@]3(C)CCC[C@](C)(CC)[C@@H]3CC[C@@]2(C)[C@@H]2CC=C(C(C)=O)[C@H](C=O)[C@@]12C (relative stereo) [Compound 2, 12β-(3′β-hydroxy-pentanoyloxy)-20,24-dimethyl-24-oxo-scalara-16-en-25-al]
inhibition at 0.08 µg/mL (human topoisomerase II): 12%
inhibition at 0.312 µg/mL (human topoisomerase II): 23%
inhibition at 1.25 µg/mL (human topoisomerase II): 36%
inhibition at 5 µg/mL (human topoisomerase II): 90%
inhibition at 20 µg/mL (human topoisomerase II): 99%
expression of γH2AX (γH2AX in Molt 4 cells): significantly enhanced the expression of γH2AX in a dose-dependent manner
IC50 (Molt 4 cells [1]; [5]): 0.3 µg/mL
IC50 (HL 60 cells): 0.22 µg/mL (≈ 0.427 µM)
apoptotic population of Molt 4 cells (Molt 4 cells [2]): increase in the apoptotic population
IC50 (K562 cells): 0.35 µg/mL (≈ 0.68 µM)
IC50 (Cal-27 cells): 3.17 µg/mL (≈ 6.16 µM)
mitochondrial membrane potential (Molt 4 cells [3]): disruption in mitochondrial membrane potential
IC50 (T-47D cells): 1.87 µg/mL (≈ 3.63 µM)
IC50 (LNCaP cells; [6]): > 20 µg/mL
IC50 (Sup-T1 cells): 0.42 µg/mL (≈ 0.816 µM)
IC50 (DLD-1 cells): 1.71 µg/mL (≈ 3.32 µM)
IC50 (Ca9-22 cells): 1.48 µg/mL (≈ 2.88 µM)
IC50 (U937 cells): 0.61 µg/mL (≈ 1.19 µM)

CC(C)=CCC/C(C)=C/CC/C(C)=C/CC/C(C)=C/CC1=CC(=O)C=CC1=O [Compound 3, 2-tetraprenil-1,4-benzochinone]
inhibition at 0.08 µg/mL (human topoisomerase II): 7%
inhibition at 0.312 µg/mL (human topoisomerase II): 13%
inhibition at 1.25 µg/mL (human topoisomerase II): 28%
inhibition at 5 µg/mL (human topoisomerase II): 90%
inhibition at 20 µg/mL (human topoisomerase II): 98%
IC50 (human topoisomerase II; cell-free system, read-out: IC50, inhibition of topo II activities (converted)): 1.13 µM
expression of γH2AX (γH2AX in Molt 4 cells): activation of DNA damage was not observed
IC50 (Molt 4 cells [1]; [5]): 0.34 µg/mL
IC50 (HL 60 cells): 0.42 µg/mL (≈ 1.1 µM)
mice body weights versus control group ([4]; 1.14 μg/g intraperitoneal, 33 days): no significant difference
average tumor size on day 33 ([4]; 1.14 μg/g intraperitoneal, every other day, 33 days): 212.10 mm^3
suppression of the volume of xenograft tumor growth compared with the control ([4]; Molt 4 xenograft): 47.58%
apoptotic population of Molt 4 cells (Molt 4 cells [2]): increase in the apoptotic population
IC50 (K562 cells): 0.7 µg/mL (≈ 1.84 µM)
IC50 (Cal-27 cells): 0.51 µg/mL (≈ 1.34 µM)
mitochondrial membrane potential (Molt 4 cells [3]): disruption in mitochondrial membrane potential
IC50 (T-47D cells): 1.06 µg/mL (≈ 2.79 µM)
IC50 (LNCaP cells; [6]): > 20 µg/mL
IC50 (Sup-T1 cells): 0.33 µg/mL (≈ 0.867 µM)
IC50 (DLD-1 cells): 15.4 µg/mL (≈ 40.5 µM)
IC50 (Ca9-22 cells): 0.97 µg/mL (≈ 2.55 µM)
IC50 (U937 cells): 0.65 µg/mL (≈ 1.71 µM)

COc1cccc2c1C(=O)c1c(O)c3c(c(O)c1C2=O)C[C@@](O)(C(=O)CO)C[C@@H]3O[C@H]1C[C@H](N)[C@H](O)[C@H](C)O1 [Doxorubicin, reference compound]
IC50 (Molt 4 cells [1]; [5]): 0.01 µg/mL
IC50 (HL 60 cells): 0.02 µg/mL (≈ 0.0368 µM)
IC50 (K562 cells): 0.2 µg/mL (≈ 0.368 µM)
IC50 (Cal-27 cells): 0.01 µg/mL (≈ 0.0184 µM)
IC50 (T-47D cells): 0.08 µg/mL (≈ 0.147 µM)
IC50 (LNCaP cells; read-out: IC50, cytotoxicity, Prostate LNCaP): 2.47 µg/mL (≈ 4.54 µM)
IC50 (Sup-T1 cells): 0.02 µg/mL (≈ 0.0368 µM)
IC50 (DLD-1 cells): 1.28 µg/mL (≈ 2.35 µM)
IC50 (Ca9-22 cells): 0.05 µg/mL (≈ 0.092 µM)
IC50 (U937 cells): 0.21 µg/mL (≈ 0.386 µM)

C=CCNC1=C2C[C@@H](C)C[C@H](OC)[C@H](O)[C@@H](C)/C=C(\C)[C@H](OC(N)=O)[C@@H](OC)/C=C\C=C(/C)C(=O)NC(=CC1=O)C2=O [Compound 17-AAG, 17-allylamine-17-demethoxygeldanamycin, reference compound]
IC50 (Molt 4 cells [1]; 24 h, molar value in brackets, read-out: IC50, suppression in cell growth, Molt 4): 7.2 µM
IC50 (Molt 4 cells [1]; 24 h, read-out: IC50, suppression in cell growth, Molt 4): 4.2 µg/mL

COc1cc([C@@H]2c3cc4c(cc3[C@@H](O[C@@H]3O[C@@H]5CO[C@@H](C)O[C@H]5[C@H](O)[C@H]3O)[C@H]3COC(=O)[C@H]23)OCO4)cc(OC)c1O [etoposide, reference compound]
DNA product with topo II poison (human topoisomerase II; 500 μM, positive control, Lane 16): linear DNA strand was observed
